Test results from PMC6277434, “Discovery of a potent HMG-CoA reductase degrader that eliminates statin-induced reductase accumulation and lowers cholesterol” (Nature Communications, 2018).
Where “and” joins values, the source holds several entries; their conditions need not be identical. Identical values can stand only once.

Experiments:
[1] = tested on: Ldlr−/− mice on a western diet; assay: Atherosclerosis model: Ldlr−/− mice on western diet (Sudan IV aorta lesions, TC/TG, FPLC); format: in vivo; conditions: for atherosclerotic lesions (en face Sudan IV staining of aortas), individual mice / atherosclerotic lesions (en face Sudan IV staining of aortas), mean: 60 mg/kg/day (each agent) gavage once daily 20 weeks; for aorta atherosclerotic lesions compared with vehicle / elevations of serum and liver TC and TG / serum cholesterol levels in VLDL, LDL and HDL (FPLC): 20 weeks; for aorta atherosclerotic lesions compared with vehicle: in words; for elevations of serum and liver TC and TG / serum cholesterol levels in VLDL, LDL and HDL (FPLC): Ldlr−/− mice, WD
Excerpt: Male C57BL/6 mice (8-week-old) were obtained from Shanghai Laboratory Animal Company (SLAC) (Shanghai, China). Male Ldlr^−/− mice (8-week-old) were obtained from Nanjing Biomedical Research Institute of Nanjing University (Nanjing, China). Mice had ad libitum access to water and standard chow diet (SLAC) unless mentioned otherwise. Special diets included medium-fat-medium-cholesterol diet (chow diet with10% fat, 0.2% cholesterol and 0.5% sodium cholate, custom made in SLAC), and western diet (20% fat, 1.25% cholesterol, 0.5% sodium cholate, D12109C, Research Diets). Mice were maintained in a pathogen-free environment and kept on a 12-h light/dark schedule. Mice were gavaged as described in figure legends with saline containing 0.5% methyl cellulose and 0.5% Tween-80. All mice were used in accordance with the guidelines approved by the Institutional Animal Care and Use Committee of Wuhan University.
Mice were anesthetized and blood collection was performed. Serum was prepared from blood by centrifuging at 1500 × g for 10 min. Livers were harvested and homogenized in a 2:1 mixture of chloroform and methanol using Precellys 24 (Bertin). The organic phase was dried under N2 and liver lipids were reconstituted in ethanol. Total cholesterol and triglyceride levels in the serum and liver were determined using Cholesterol Assay Kit and Triglyceride Assay Kit (Shanghai Kehua Bio-engineering, China).
To examine aorta atherosclerotic lesions, the aortic tree was isolated and fixed with 4% PFA. After removing perivascular adipose tissues, the atherosclerotic lesions were stained with Sudan IV for 10 min and washed with 70% ethanol for 3 min. The aortic tree was pinned to the black wax-filled petri dish containing PBS and imaged under a stereoscopic microscope (Olympus SZX16). The atherosclerotic lesions were quantified with Image J software (NIH)[66].
Serum lipoproteins were separated by FPLC (AKTA, GE Healthcare) using Superdex 75 10/300 GL (GE Healthcare) column. One hundred microliters pooled serum from five mice per group was diluted with 200 μl PBS, and loaded to the column. Fractions were eluted with PBS at a constant rate of 0.2 ml min^–1, and collected with 300 μl per tube. 100 μl fractions were used to quantify the concentration of total cholesterol level with the Amplex Red Cholesterol Assay Kit (Invitrogen). The cholesterol distribution curves of lipoproteins were done with GraphPad Prism 6 software.

[2] = Body weight and food intake of treated mice; format: in vivo
[3] = C57BL/6J mice, MFMC diet, 6 weeks

SMILES	atherosclerotic lesions (en face Sudan IV staining of aortas), individual mice [1]	atherosclerotic lesions (en face Sudan IV staining of aortas), mean [1]	aorta atherosclerotic lesions compared with vehicle [1]	elevations of serum and liver TC and TG [1]	serum cholesterol levels in VLDL, LDL and HDL (FPLC) [1]	body weight and food intake [2, 3]	body weight and food intake ([2]; Ldlr−/− mice, WD, up to 20 weeks)
C=CCC(O)(CC=C)CCCC(C)C1CCC2C3C(O)C=C4C(C)(C)C(O)CCC4(C)C3CCC12C (stereo not shown) [Cmpd 81]	32.5011 and 38.2916 and 37.5217 and 25.3733 and 31	32.9375	Significantly less aorta lesions	significant effects on alleviating the elevations	remarkably reduced	remained comparable	did not affect
CC[C@H](C)C(=O)O[C@H]1C[C@@H](C)C=C2C=C[C@H](C)[C@H](CC[C@@H]3C[C@@H](O)CC(=O)O3)[C@H]21 [Lovastatin, lovastatin]	31.5731 and 31.0783 and 37.0572 and 32.3991 and 25	31.4215	Significantly less aorta lesions	significant effects on alleviating the elevations	remarkably reduced	remained comparable	–
